Measurements taken from publication PMC12295927, “Design, Synthesis, and Testing of 1,2,3-Triazolo-Quinobenzothiazine Hybrids for Cytotoxic and Immunomodulatory Activity” (International Journal of Molecular Sciences, 2025).

What was measured:
[1] = test system: BEAS-2B cells; experiment: DAPI staining for nuclear morphology and apoptosis, BEAS-2B; format: cell-based, Human; settings: 100 μM, 24 h
Procedure: The BEAS-2B, NHDF, HCT116, MCF7, SH-SY5Y, A549 cell lines studied were cultured in DMEM medium supplemented with 10% fetal bovine serum (FBS) and 1% penicillin/streptomycin solution. Cells were seeded at 1 × 10^4 per well in 96-well plates and incubated for 24 h under standard culture conditions: temperature 37 °C, 5% CO2, 95% humidity. After 24 h, compounds from the MJ1–MJ20 group were added to individual wells at different concentrations (6.25 µM, 12.5 µM, 25 µM, 50 µM, 100 µM). The control consisted of cells grown only in medium without the addition of chemical compounds. After 24 h of incubation, cells were observed under a microscope (JuLI™ FL Live fluorescence microscope from NanoEntek, Martinsried, Germany), documenting morphological changes. Observations included visual assessments of confluence, cell shape, arrangement, and interaction with the substrate. The Supplementary Materials include a comprehensive collection of microscopic images showing the morphology of the tested cell lines (BEAS-2B, NHDF, HCT116, MCF7, SH-SY5Y, A549) after 24 h of incubation with compounds MJ1–MJ20. These images illustrate the effects of the compounds on cell shape, density, and adhesion. The images are provided as a separate PDF file for further reference. For apoptosis observations, the samples of BEAS-2B and HCT116 cells were additionally fixed with 4% paraformaldehyde (PFA) after 24 h of incubation with, or without selected compounds (Section 2.6) and DAPI stained for apoptotic bodies visualization (Fluoromount-G™ medium with DAPI dye; Thermo Fisher Scientific, Waltham, MA, USA). The samples were visualized using fluorescent microscopy AXIO IMAGER M1 by ZEISS, DAPI channel and 20x magnification. The percent of counted cells with apoptotic nucleus was defined in comparison to all visualized events.
BEAS-2B and HCT116 cells were seeded into culture plates at 5 × 10^3 cells per well using 0.5 mL of RPMI-1640 medium (for BEAS-2B) or DMEM (for HCT116). The plates were incubated for 24 h at 37 °C in an atmosphere containing 5% CO2. After incubation, the medium was removed and compounds MJ2, MJ8, MJ15, and MJ19 were added in the appropriate medium at a concentration of 100 μM. The plates were incubated for 24 h at 37 °C in an atmosphere containing 5% CO2. After incubation, the medium was removed, and 500 µL of 4% paraformaldehyde (PFA) was added to each well to fix the cells. Incubation continued for 10 min at room temperature. After removal of the PFA, the wells were rinsed with 500 µL of PBS (5 min of incubation) and then with distilled water. The cells were allowed to dry at room temperature. After drying, the cells were stained with DAPI. Observations were made using a fluorescence microscope AXIO IMAGER M1 by ZEISS at 20x magnification.

[2] = test system: BEAS-2B; experiment: Alamar Blue cytotoxicity test, BEAS-2B; format: cell-based, Human; settings: Homo sapiens, 24 h, 24 h incubation, read-out: IC50 values for BEAS-2B line
Procedure: The cytotoxicity of the tested chemical compounds MJ1–MJ20 was tested using the Alamar Blue test. The experiment was conducted on cell lines BEAS-2B (Figure 7), HCT116 (Figure 8), U2OS (Figure 9), MCF7 (Figure 10), SH-SY5Y (Figure 11), NHDF (Figure 12), and A549 (Figure 13). Cells were seeded in 96-well plates and incubated with the tested compounds for 24 h. The test result is the IC50 parameter, which is a measure of cytotoxic activity expressed by the concentration of the substance that causes the death of half of the analyzed cells compared to the control.
In cytotoxicity studies, the Alamar Blue test was used, which is based on the ability of living cells to reduce the non-fluorescent dye resazurin to fluorescent resorufin, which reflects the metabolic activity of cells. BEAS-2B, NHDF, HCT116, MCF7, A549, SH-SY5Y and U2OS cell lines were cultured under standard conditions, in DMEM medium supplemented with 10% FBS and 1% penicillin/streptomycin, at 37 °C, 5% CO2 and 95% humidity. Cells were seeded in 96-well plates at 1 × 10^4 cells per well and incubated for 24 h. Then, the tested compounds (MJ1–MJ20) were added at different concentrations (from 6.25 µM to 100 µM). The control contained cells untreated with the tested compounds. After 24 h of incubation, 10 µL of Alamar Blue solution was added to each well and incubated for another 2–4 h under the same conditions. The signal was measured spectrophotometrically at wavelengths of 570 nm (for resorufin) and 600 nm (for resazurin) or optionally fluorimetrically, using an excitation maximum of 570 nm and an emission maximum of 585 nm. The results were presented as percentage of cell survival relative to the control, calculating the ratio of absorbance or fluorescence of the sample to the control value. The Alamar Blue assay, due to its sensitivity and non-toxicity, allows for an accurate assessment of metabolic activity and cell survival in response to the tested quinobenzothiazines.

Compound	Apoptotic changes in cell nuclei (DAPI) [1]	IC50 [2] [µM]
CSc1ccc2c(c1)Sc1cc3ccccc3nc1N2Cc1cn(Cc2ccc(C#N)cc2)nn1 [MJ19, 4-((4-((9-Methylthioquino[3,2-b]benzo[1,4]thiazin-6-yl)methyl)-1H-1,2,3-triazol-1-yl)methyl)benzonitrile]	no significant apoptotic changes	72.7
Fc1ccc2c(c1)Sc1cc3ccccc3nc1N2Cc1cn(Cc2ccc(Cl)cc2)nn1 [MJ8, 9-Fluoro-6-[(1-(4-chlorobenzyl)-1H-1,2,3-triazol-4-yl)methyl]-quino[3,2-b]benzo-[1,4]thiazine]	no significant apoptotic changes	71.9
Fc1ccc(Cn2cc(CN3c4ccccc4Sc4cc5ccccc5nc43)nn2)cc1 [MJ2, 6-((1-(4-Fluorobenzyl)-1H-1,2,3-triazol-4-yl)methyl)-quino[3,2-b]benzo[1,4]thiazine]	no significant apoptotic changes	76.2
Clc1ccc2c(c1)Sc1cc3ccccc3nc1N2Cc1cn(CSc2ccccc2)nn1 [MJ15, 9-Chloro-6-((1-((phenylthio)methyl)-1H-1,2,3-triazol-4-yl)methyl)-quino[3,2-b]benzo[1,4]thiazine]	no significant apoptotic changes	87.2
